Results: US8461150B2, “Chalcone linked pyrrolo[2,1-c][1, 4]benzodiazepine hybrids as potential anticancer agents and process for the preparation thereof” (Council of Scientific & Industrial Research, priority 2008, dated 2013)

Legend:
human tumour cell lines = assay: In vitro cytotoxicity, mean graph midpoints (MG_MID) over human tumour cell lines; type: cell-based; conditions: for Log10LC50 mean graph midpoint (MG_MID): 50% cell death; for Log10LC50 mean graph midpoint (MG_MID) / Log10GI50 mean graph midpoint (MG_MID) / Log10TGI mean graph midpoint (MG_MID): human tumour cell lines, 48 h exposure, SRB; for cytotoxicity against some cancer cell lines: in words, refers to Table 3; for Log10TGI mean graph midpoint (MG_MID): total cell growth inhibition
Description: (§1) Biological Activity: The in vitro cell line studies were carried out at the National Cancer Institute, Maryland, USA.
(§2) 6b, 6c, 6g, 10a and 10b were evaluated for in vitro anticancer activity against sixty human tumour cells derived from nine cancer types (leukemia, non-small-cell lung, colon, CNS, melanoma, ovarian, prostate, renal and breast cancer) as shown in (Table 1 and 2). For the compound, dose response curves for each cell line were measured at a minimum of five concentrations at 10 fold dilutions. A protocol of 48 h continuous drug exposure was used and a sulforhodamine B (SRB) protein assay was used to estimate cell viability or growth. The concentration causing 50% cell growth inhibition (GI50), total cell growth inhibition (TGI 0% growth) and 50% cell death (LC50, −50% growth) compared with the control was calculated.

786-0 (Renal) = assay: Cytotoxicity in selected cancer cell lines (SRB, 48 h); type: cell-based, human
Description: as §1, §2
(§3) Each cancer type represents the average of six to nine different cancer cell lines. In vitro evaluation of cytotoxic activity. The compound 6b, 6c, 6g 10a and 10b were evaluated for in vitro anticancer activity against nine human tumour cells derived from six cancer types (leukemia, colon, prostate, melanoma, ovarian, lung, cervix and breast cancer) as shown in Table 3. […] Compounds 6b, 6c, 6g, 10a and 10b have been evaluated for their in vitro cytotoxicity in selected human cancer cell lines of colon (Colo205), lung (NCI-H522, NCI-H226), colon (colo-205), prostate (DU145, PC3), ovarian (IGROV1, HT1080), and breast (MDA-MB-435, Zr-75-1), melanoma (LOXMIVI, VACC-62, SK-MEL-5) origin. A protocol of 48 h continuous drug exposure has been used and an […] has been used to estimate cell viability or growth. The results are expressed as percent of cell growth determined relative to that of untreated control cells

A498 (Renal) = assay: as above; type: cell-based, human
Description: as §1, §2, §3

ACHN (Renal) = assay: as above; type: cell-based, human
Description: as §1, §2, §3

CAKI-1 (Renal) = assay: as above; type: cell-based, human
Description: as §1, §2, §3

CCRF-CEM (Leukemia) = assay: as above; type: cell-based, human
Description: as §1, §2, §3

HCT-116 (Colon) = assay: as above; type: cell-based, human
Description: as §1, §2, §3

HCT-15 (Colon) = assay: as above; type: cell-based, human
Description: as §1, §2, §3

HL-60(TB) (Leukemia) = assay: as above; type: cell-based, human
Description: as §1, §2, §3

LOX IMVI (Melanoma) = assay: as above; type: cell-based, human
Description: as §1, §2, §3

M14 (Melanoma) = assay: as above; type: cell-based, human
Description: as §1, §2, §3

MALME-3M (Melanoma) = assay: as above; type: cell-based, human
Description: as §1, §2, §3

MDA-MB-231/ATCC (Breast) = assay: as above; type: cell-based, human
Description: as §1, §2, §3

[1] = test system: NCI-H226 (Non-small cell lung); assay: as above; type: cell-based, human
Description: as §1, §2, §3

[2] = test system: NCI-H23 (Non-small cell lung); assay: as above; type: cell-based, human
Description: as §1, §2, §3

[3] = test system: NCI-H522 (Non-small cell lung); assay: as above; type: cell-based, human
Description: as §1, §2, §3

NCI/ADR-RES (Breast) = assay: as above; type: cell-based, human
Description: as §1, §2, §3

OVCAR-3 (Ovarian) = assay: as above; type: cell-based, human
Description: as §1, §2, §3

RPMI-8226 (Leukemia) = assay: as above; type: cell-based, human
Description: as §1, §2, §3

SF-539 (CNS) = assay: as above; type: cell-based, human
Description: as §1, §2, §3

SK-MEL-5 (Melanoma) = assay: as above; type: cell-based, human
Description: as §1, §2, §3

SW-620 (Colon) = assay: as above; type: cell-based, human
Description: as §1, §2, §3

TK-10 (Renal) = assay: as above; type: cell-based, human
Description: as §1, §2, §3

U251 (CNS) = assay: as above; type: cell-based, human
Description: as §1, §2, §3

UACC-257 (Melanoma) = assay: as above; type: cell-based, human
Description: as §1, §2, §3

UACC-62 (Melanoma) = assay: as above; type: cell-based, human
Description: as §1, §2, §3

UO-31 (Renal) = assay: as above; type: cell-based, human
Description: as §1, §2, §3

[4] = test system: duplex-form calf thymus DNA (CT-DNA); assay: Thermal denaturation studies with calf thymus DNA; type: binding; conditions: [PBD]:[DNA] molar ratio 1:5, CT-DNA 100 μM, ligand 20 μM, pH 7.00; for ΔTμ (° C.) after incubation at 37 °C. for 0 h: 0 h incubation; for ΔTμ (° C.) after incubation at 37 °C. for 18 h: 18 h incubation
Description: These compounds have also been subjected to thermal denaturation studies with duplex-form calf thymus DNA (CT-DNA) using an modification of a reported procedure. Working solutions in aqueous buffer (10 mM NaH2PO4/Na2HPO4, 1 mM Na2EDTA, pH 7.00+0.01) containing CT-DNA (100 μm in phosphate) and the PBD (20 μm) have been prepared by addition of concentrated PBD solutions in DMSO to obtain a fixed [PBD]/[DNA] molar ratio of 1:5. The DNA-PBD solutions have been incubated at 37° C. for 0 and 18 h prior to analysis. Samples have been monitored at 260 nm using a Beckman DU-800 spectrophotometer fitted with high performance temperature controller, and heated at 1° C. min^−1 in the 40-110° C. range. DNA helix→coil transition temperatures (Tm) have been obtained from the maxima in the d(A260)/d T derivative plots. Drug-induced alterations in DNA melting behavior are given by: ΔTm=Tm(DNA+PBD)−Tm(DNA alone), where the Tm value for the PBD-free CT-DNA is 68.5±0.01.

| SMILES | Log10LC50 mean graph midpoint (MG_MID) (human tumour cell lines) | Log10GI50 mean graph midpoint (MG_MID) (human tumour cell lines) | cytotoxicity against some cancer cell lines (human tumour cell lines) | Log10TGI mean graph midpoint (MG_MID) (human tumour cell lines) | GI50 (786-0 (Renal)) [µM] | GI50 (A498 (Renal)) [µM] | GI50 (ACHN (Renal)) [µM] | GI50 (CAKI-1 (Renal)) [µM] | GI50 (CCRF-CEM (Leukemia)) [µM] | GI50 (HCT-116 (Colon)) [µM] | GI50 (HCT-15 (Colon)) [µM] | GI50 (HL-60(TB) (Leukemia)) [µM] | GI50 (LOX IMVI (Melanoma)) [µM] | GI50 (M14 (Melanoma)) [µM] | GI50 (MALME-3M (Melanoma)) [µM] | GI50 (MDA-MB-231/ATCC (Breast)) [µM] | GI50 [1] [µM] | GI50 [2] [µM] | GI50 [3] [µM] | GI50 (NCI/ADR-RES (Breast)) [µM] | other results |
| --- | --- | --- | --- | --- | --- | --- | --- | --- | --- | --- | --- | --- | --- | --- | --- | --- | --- | --- | --- | --- | --- |
| COc1cc(C=CC(=O)c2ccc(F)cc2)ccc1OCCCCOc1cc2c(cc1OC)C(=O)N1CCC[C@H]1C=N2 [6b, 7-Methoxy-8-{4-[1-(4-fluorophenyl)-3-(4-hydroxy-3-methoxyphenyl)-2-propen-1-one]butyl}-oxy-(11aS)-1,2,3,11a-5H-pyrrolo[2,1-c][1,4]benzodiazepin-5-one] | −4.59 | −6.83 | promising cytotoxicity | −6.81 | 19.8 | 26.1 | 43.4 | 13.6 | 16 | 11.2 | 28.5 | 29 | 10 | 10.1 | 18.2 | 11.6 | 14 | 19.2 | 11.5 | 13.8 | GI50 (OVCAR-3 (Ovarian)): 37 µM; GI50 (RPMI-8226 (Leukemia)): 13 µM; GI50 (SF-539 (CNS)): 29.6 µM; GI50 (SK-MEL-5 (Melanoma)): 10 µM; GI50 (SW-620 (Colon)): 13.5 µM; GI50 (TK-10 (Renal)): 16.6 µM; GI50 (U251 (CNS)): 14.8 µM; GI50 (UACC-257 (Melanoma)): 70.9 µM; GI50 (UACC-62 (Melanoma)): 10 µM; GI50 (UO-31 (Renal)): 19.2 µM; ΔTμ (° C.) after incubation at 37 °C. for 0 h [4]: 2.2 °C; ΔTμ (° C.) after incubation at 37 °C. for 18 h [4]: 2.6 °C |
| COc1cc(C=CC(=O)c2ccc(F)cc2)ccc1OCCCCCOc1cc2c(cc1OC)C(=O)N1CCC[C@H]1C=N2 [6c, 7-Methoxy-8-{5-[1-(4-fluorophenyl)-3-(4-hydroxy-3-methoxyphenyl)-2-propen-1-one]pentyl}-oxy-(11aS)-1,2,3,11a-5H-pyrrolo[2,1-c][1,4]benzodiazepin-5-one] | −4.61 | −6.86 | promising cytotoxicity | −6.79 | 18.4 | 20.1 | 42 | 15.8 | 25.1 | 21 | 29.3 | 28.2 | 18.2 | 14.5 | 24.2 | 19.9 | 16.5 | 15.8 | 65.3 | 17.4 | GI50 (OVCAR-3 (Ovarian)): 34.3 µM; GI50 (RPMI-8226 (Leukemia)): 16.4 µM; GI50 (SF-539 (CNS)): 30.3 µM; GI50 (SK-MEL-5 (Melanoma)): 20.9 µM; GI50 (SW-620 (Colon)): 18.8 µM; GI50 (TK-10 (Renal)): 38.2 µM; GI50 (U251 (CNS)): 15.2 µM; GI50 (UACC-257 (Melanoma)): 22.9 µM; GI50 (UACC-62 (Melanoma)): 15.1 µM; GI50 (UO-31 (Renal)): 21.1 µM; ΔTμ (° C.) after incubation at 37 °C. for 0 h [4]: 2.4 °C; ΔTμ (° C.) after incubation at 37 °C. for 18 h [4]: 2.9 °C |
